The text below walks through data of patent US7138543B2, “Thiolalkyl benzoic acid derivatives” (Guilford Pharmaceuticals Inc., priority 2001, dated 2006).

T1 sequence (Q04609 whole entry): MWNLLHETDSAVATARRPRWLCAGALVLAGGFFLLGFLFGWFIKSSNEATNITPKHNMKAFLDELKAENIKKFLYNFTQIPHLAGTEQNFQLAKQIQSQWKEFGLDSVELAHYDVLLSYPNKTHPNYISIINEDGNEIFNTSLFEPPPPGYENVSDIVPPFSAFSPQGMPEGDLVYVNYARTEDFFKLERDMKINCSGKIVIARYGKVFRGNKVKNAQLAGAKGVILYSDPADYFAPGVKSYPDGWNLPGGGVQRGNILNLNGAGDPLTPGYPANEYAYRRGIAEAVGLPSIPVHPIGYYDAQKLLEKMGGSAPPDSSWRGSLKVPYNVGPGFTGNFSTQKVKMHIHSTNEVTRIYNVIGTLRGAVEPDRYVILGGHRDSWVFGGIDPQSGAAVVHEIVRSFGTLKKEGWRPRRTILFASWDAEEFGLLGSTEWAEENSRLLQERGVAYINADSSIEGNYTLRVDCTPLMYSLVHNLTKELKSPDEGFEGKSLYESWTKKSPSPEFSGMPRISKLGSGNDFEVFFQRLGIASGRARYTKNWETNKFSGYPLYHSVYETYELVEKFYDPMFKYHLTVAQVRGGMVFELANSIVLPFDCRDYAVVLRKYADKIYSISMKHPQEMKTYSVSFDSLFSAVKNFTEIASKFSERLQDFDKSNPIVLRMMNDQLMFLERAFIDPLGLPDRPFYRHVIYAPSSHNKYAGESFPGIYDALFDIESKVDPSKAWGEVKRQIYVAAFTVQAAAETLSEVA

The subject of one assay is chronic constrictive injury-induced rats. The experiment in a line: Neuropathic pain in CCI model (sciatic nerve ligation). The class given is in vivo. The conditions noted are these: 0.1 mg/kg for 18 days after sciatic nerve ligation, FIG. 14. As for the experimental part: In vivo Assay of NAALADase Inhibitors on Neuropathic Pain in CCI Model
Sciatic nerve ligation, consisting of 4 ligatures tied loosely around the sciatic nerve at 1 mm intervals proximal to the nerve trifurcation, was performed on rats. […] The rats were habituated to a Hargreaves apparatus. An infrared heat source was directed onto the dorsal surface of each rat's hindpaws and the time taken for the rat to withdraw its paws was noted. The difference in scores between the latency of the response for the paw on the operated side versus the paw on the unoperated control side was determined.
For `O=C(O)c1cccc(-c2cccc(CCS)c2C(=O)O)c1` [Compound 10, 3-(2-mercaptoethyl)-[1,1′-biphenyl]-2,3′-dicarboxylic acid], the “withdrawal latency difference scores between operated and unoperated paws” value is on record as “normalized the difference in scores”.

Still in this assay, the particulars now being: 10, 1 or 0.1 mg/kg for 15 days after sciatic nerve ligation, FIG. 13.
As to `O=C(O)c1ccc(COc2cccc(CCS)c2C(=O)O)cc1` [Compound 9, 2-[(4-carboxyphenyl)methoxy]-6-(2-mercaptoethyl)-benzoic acid], the “withdrawal latency difference scores between operated and unoperated paws” value is “normalized the difference in scores”.

Another assay addresses T1, NAALADase (Homo sapiens, UniProt Q04609).
T1 construct: from tissue; host or cells: unspecified tissue
The experiment in a line: In vitro inhibition of NAALADase activity. The class given is biochemical. As to conditions: unit inferred. As to the method:
In vitro Inhibition of NAALADase Activity
Protocol for Assaying in vitro Inhibition of NAALADase Activity
The following were combined in assay tubes: 100 μL of 10 mM CoCl2, 250 μL of 200 mM Tris chloride, 100 μL tissue, 100 μL of 10 mM NAALADase inhibitor in Bakers H2O, and Bakers H2O to make a total volume of 950 μL. Each assay tube was then incubated for 10 minutes in a 37° C. water bath. […] The assay was stopped by adding 1.0 ml of 0.1 M sodium phosphate.
Glutamate released by the action of the NAALADase enzyme was separated from the assay solution using an anion exchange resin. The resin was equilibrated to 25° C., 2.0 ml of the resin was added to a Pasteur pipette pre-loaded with a single glass bead, and each column was washed twice with distilled H2O. A column was placed over a scintillation vial and 200 μL of an assay sample was loaded onto the column. After draining, glutamate was eluted using two 1.0 ml washes of 1 M formic acid. After addition of 10 ml of scintillation cocktail, each sample was counted for 2 minutes on a scintillation counter.
`O=C(O)c1c(CCS)cccc1OCc1ccccc1` [Compound 7, 2-(2-mercaptoethyl)-6-(phenylmethoxy)-benzoic acid] returned a 50% inhibitory concentration (IC50) of 89.8 nM.

`O=C(O)c1ccc(COc2cccc(CCS)c2C(=O)O)cc1` [Compound 9, 2-[(4-carboxyphenyl)methoxy]-6-(2-mercaptoethyl)-benzoic acid] showed an IC50 of 28.8 nM.

With `O=C(O)c1ccc(COc2cccc(CCS)c2C(=O)O)cc1Br` [Compound 20, 2-[(3-bromo-4-carboxyphenyl)methoxy]-6-(2-mercaptoethyl)-benzoic acid], the concentration for half-maximal inhibition (IC50) was determined as 18 nM.

Turning to `O=C(O)c1cccc(-c2ccc(CS)cc2C(=O)O)c1` [Compound 26, 4-(mercaptomethyl)-[1,1′-biphenyl]-2,3′-dicarboxylic acid], the half-inhibitory concentration (IC50) was 24.3 nM.

As to `O=C(O)c1ccccc1CS` [Compound 31, 2-(mercaptomethyl)-benzoic acid], the IC50 was found to be 100000 nM.

In turn, `O=C(O)c1c(CCS)cccc1OCc1ccc(Cl)cc1` [Compound 32, 2-[(4-chlorophenyl)methoxy]-6-(2-mercaptoethyl)-benzoic acid] registered an IC50 of 25 nM.

Molecule `O=C(O)c1c(CCS)cccc1OCc1ccccc1-c1ccccc1` [Compound 33, 2-(biphenyl-2-ylmethoxy)-6-(2-mercaptoethyl)-benzoic acid] gave an IC50 of 95 nM.

The molecule `O=C(O)c1cc(Br)cc(COc2cccc(CCS)c2C(=O)O)c1` [Compound 34, 2-[(3-bromo-5-carboxyphenyl)methoxy]-6-(2-mercaptoethyl)-benzoic acid] showed an IC50 of 0.9 nM. Compared with the last molecule, the IC50 is about 110-fold lower.

`O=C(O)c1ccc(Br)c(COc2cccc(CCS)c2C(=O)O)c1` [Compound 35, 2-[(2-bromo-5-carboxyphenyl)methoxy]-6-(2-mercaptoethyl)-benzoic acid] showed an IC50 of 1.2 nM.

The molecule `COc1ccc(COc2cccc(CCS)c2C(=O)O)cc1` [Compound 36, 2-(2-mercaptoethyl)-6-[(4-methoxyphenyl)methoxy]-benzoic acid] had a half-maximal inhibitory concentration (IC50) of 100 nM.

Take `Cc1ccc(COc2cccc(CCS)c2C(=O)O)cc1` [Compound 37, 2-(2-mercaptoethyl)-6-[(4-methylphenyl)methoxy]-benzoic acid]: the concentration for half-maximal inhibition (IC50) amounted to 70 nM.

`O=C(O)c1cc(COc2cccc(CCS)c2C(=O)O)ccc1Br` [Compound 38, 2-[(4-bromo-3-carboxyphenyl)methoxy]-6-(2-mercaptoethyl)-benzoic acid] registered an IC50 of 0.8 nM. This IC50 is about 88-fold lower than that of the molecule before.

The molecule `COc1ccc(C(=O)O)c(COc2cccc(CCS)c2C(=O)O)c1` [Compound 39, 2-[(2-carboxy-5-methoxyphenyl)methoxy]-6-(2-mercaptoethyl)-benzoicacid] displayed an IC50 of 40 nM. Against the preceding molecule, the IC50 is about 50-fold higher.

The molecule `O=C(O)c1cccc(COc2cccc(CCS)c2C(=O)O)c1` [Compound 40, 2-(3-carboxy-benzyloxy)-6-(2-mercapto-ethyl)-benzoic acid] returned an IC50 of 1 nM.

For `O=C(O)c1c(CCS)cccc1OCc1ccc(Br)cc1` [Compound 41, 2-(4-bromo-benzyloxy)-6-(2-mercapto-ethyl)-benzoic acid], the IC50 came out at 1250 nM. This IC50 lies about 1200-fold higher than the previous one.

`CC(C)(C)c1ccc(COc2cccc(CCS)c2C(=O)O)cc1` [Compound 42, 2-(4-tert-butyl-benzyloxy)-6-(2-mercapto-ethyl)-benzoic acid] yielded an IC50 of 300 nM.

The molecule `O=C(O)c1c(CCS)cccc1OCc1cccc(Br)c1` [Compound 43, 2-(3-bromo-benzyloxy)-6-(2-mercapto-ethyl)-benzoic acid] had an IC50 of 104 nM.

On to `COc1cccc(CCS)c1C(=O)O` [Compound 44, 2-(2-mercapto-ethyl)-6-methoxy-benzoicacid], for which the IC50 came out at 954 nM.

Molecule `O=C(O)c1c(CCS)cccc1OC(c1ccccc1)c1ccccc1` [Compound 45, 2-benzhydryloxy-6-(2-mercapto-ethyl)-benzoic acid] returned a half-maximal inhibitory concentration (IC50) of 35200 nM.

Turning to `O=C(O)c1c(CCS)cccc1OCc1cccc(Cl)c1` [Compound 46, 2-(3-chloro-benzyloxy)-6-(2-mercapto-ethyl)-benzoic acid], the IC50 is 12200 nM. This IC50 lies about 2.9-fold lower than the previous one.

In the case of `O=C(O)c1c(CCS)cccc1-c1ccccc1` [Compound 47, 3-(2-mercapto-ethyl)-biphenyl-2-carboxylic acid], the half-inhibitory concentration (IC50) came to 75400 nM.

In turn, `O=C(O)Cc1cccc(CCS)c1C(=O)O` [Compound 48, 2-carboxymethyl-6-(2-mercapto-ethyl)-benzoic acid] came in with an IC50 of 43 nM.

The subject of the next assay is STZ diabetic rats. Description: Reversal of diabetic neuropathy in STZ model, delayed dosing: thermal hyperalgesia. Format: in vivo. The conditions noted are these: daily p.o., treatment from 5 weeks post STZ, within two weeks of treatment, FIG. 22. As for the experimental part: (§1) In vivo Assay of NAALADase Inhibitors—Reversal of Diabetic Neuropathy in STZ Model
(§2) General Method for STZ Model—Delayed Dosing
(§3) Rats (200–225 grams) were injected with STZ (70 mg/kg) into the tail vein. Diabetes (>350 mg/dl) was confirmed in all rats, 4 weeks after STZ administration. Rats were left untreated until 35–49 days after STZ. Compound D (1, 3, or 10 mg/kg), Compound E (10 mg/kg), or vehicle were dosed daily p.o. following confirmation of hyperalgesia and/or nerve conduction velocity deficits. In separate experiments, onset of treatment was delayed until 60 to 90 days after STZ administration. Nerve conduction velocity or withdrawal response to thermal stimulation of hind paws was measured at intervals, usually bi-weekly for thermal response and monthly for nerve conduction velocity.
Animals were acclimated to the apparatus for at least 5 min. An infra-red source was placed under below the plantar surface of the rat hind-paw. The intensity of the source was adjusted so that latency for normal rats was about 10 secs. Animals were tested for thermal response latency according to the method of Hargreaves et al (Pain 77–88, 1988). Each animal was tested 8 times (4 each hind limb) and the latency of response recorded automatically to nearest 0.1 sec. An average of the last 4 measurements for each paw was calculated (8 total measurements) and noted for each rat.
Consider `O=C(O)c1cccc(CC(CCCS)C(=O)O)c1` (stereo not drawn) [Compound E, 3-Carboxy-alpha-(3-mercaptopropyl)-benzenepropanoic acid], for which the “neuropathic hyperalgesia (thermal response latency)” value is recorded as “reversed towards normal”.

The test system of another assay is STZ diabetic rats. The experiment in a line: Reversal of diabetic neuropathy in STZ model, delayed dosing: nerve conduction velocity. As to conditions: daily p.o., within 8 weeks of dosing, persisted through 12 weeks, FIG. 23. Format: in vivo. As to the method: as §1, §2, §3
Nerve Conduction Velocity Measurements
Sensory and motor nerve conduction velocities were evaluated using the method of De Koning and Gispen (Peptides 8: 415–422, 1987). Electrophysiological evaluation was carried out within one hour of dosing. Animals were anesthetized with isoflurane and stimulating needle electrodes were inserted close to the sciatic nerve at the sciatic notch and the tibial nerve near the ankle. Recording electrodes were placed over the foot muscles. Stimuli were applied and responses recorded. Motor and sensory nerve conduction velocities were calculated by measuring the distance between the sciatic notch and ankle sites, and the latency between the M-wave and the H-reflex.
Consider `O=C(O)c1cccc(CC(CCCS)C(=O)O)c1` (stereo not drawn) [Compound E, 3-Carboxy-alpha-(3-mercaptopropyl)-benzenepropanoic acid], for which the “motor nerve conduction velocity” value is “reversed the motor nerve conduction velocity towards normal”.

A further assay concerns cortical cell cultures. The experiment in a line: In vitro assay on ischemia (potassium cyanide and 2-deoxyglucose insult). Format: cell-based. As to conditions: concentration required to cause a 50% reduction in glutamate toxicity following an ischemic insult; unit inferred. As for the experimental part: In vitro Assay on Ischemia
To examine the in vitro effect of the compounds of the invention on ischemia, cortical cell cultures were treated with various compounds of the invention during an ischemic insult utilizing potassium cyanide and 2-deoxyglucose, and for one hour thereafter. For a description of the experimental method used, see Vornov et al., J. Neurochem., Vol. 65, No. 4, pp. 1681–1691 (1995).
As for `O=C(O)c1ccccc1CCS` [Compound 1, 2-(2-mercaptoethyl)-benzoic acid], the EC50 amounted to 846 nM.

The molecule `O=C(O)c1ccc(COc2ccc(CCS)c(C(=O)O)c2)cc1` [Compound 3, 5-[(4-carboxyphenyl)methoxy]-2-(2-mercaptoethyl)-benzoic acid] returned an EC50 of 10000 nM.

In the case of `O=C(O)c1cc(OCc2ccccc2)ccc1CCS` [Compound 4, 2-(2-mercaptoethyl)-5-(phenylmethoxy)-benzoic acid,], a half-maximal response (EC50) required 9600 nM.

For the molecule `O=C(O)c1cccc(COc2ccc(CCS)c(C(=O)O)c2)c1` [Compound 6, 5-[(3-carboxyphenyl)methoxy]-2-(2-mercaptoethyl)-benzoic acid], the EC50 came to 84 nM.

Regarding `O=C(O)c1c(CCS)cccc1OCc1ccccc1` [Compound 7, 2-(2-mercaptoethyl)-6-(phenylmethoxy)-benzoic acid], the concentration for a half-maximal effect (EC50) was found to be 96 nM.

Turning to `O=C(O)c1ccccc1COc1cccc(CCS)c1C(=O)O` [Compound 8, 2-[(2-carboxyphenyl)methoxy]-6-(2-mercaptoethyl)-benzoic acid], a half-maximal effect (EC50) was put at 29 nM. This EC50 lies about 3.3-fold lower than the previous one.

Consider `O=C(O)c1ccc(COc2cccc(CCS)c2C(=O)O)cc1` [Compound 9, 2-[(4-carboxyphenyl)methoxy]-6-(2-mercaptoethyl)-benzoic acid], for which the concentration giving a half-maximal response (EC50) was determined as 19 nM.

As for `O=C(O)c1cc(CS)ccc1Br` [Compound 25, 2-bromo-5-(mercaptomethyl)-benzoic acid], it took 2000 nM to reach a half-maximal effect (EC50).

Regarding `O=C(O)c1cccc(-c2ccc(CS)cc2C(=O)O)c1` [Compound 26, 4-(mercaptomethyl)-[1,1′-biphenyl]-2,3′-dicarboxylic acid], the midpoint of the response, the EC50, lay at 151 nM.

For `O=C(O)c1cc(CS)ccc1OCc1ccccc1` [Compound 27, 5-(mercaptomethyl)-2-(phenylmethoxy)-benzoic acid], it took 728 nM to reach a half-maximal effect (EC50).

Molecule `O=C(O)c1cccc(CCS)c1` [Compound 29, 3-(2-mercaptoethyl)-benzoic acid] had an EC50 of 2400 nM.

For `O=C(O)c1cccc(CS)c1` [Compound 30, 3-(mercaptomethyl)-benzoic acid], the concentration giving a half-maximal response (EC50) amounted to 619 nM.

A word on the IC50: it is the midpoint of a concentration-inhibition curve. Broadly, the EC50 is the concentration needed to bring the measured effect to its halfway point. A low value points to an effect from little substance.
